{"source": "patent US20250313862A1", "about": "“INHIBITION OF GENOTOXIC STRESS TO IMPROVE T CELL ENGINEERING” (GENENTECH, INC., priority 2022, published 2025)", "key": {"[1]": {"system": "human primary CD8+ T cells", "experiment": "T cell viability 48 h post transfection (NucleoCounter NC-200)", "assay_type": "cell-based", "settings": "for culture viability improvement compared to the untreated control group (CTR): 6 h pretreatment prior to transfection, 48 h-post transfection, on average (FIG. 6A)", "description": "(§1) Peripheral blood mononuclear cells (PBMCs) were isolated from human cryopreserved leukopak using Ficoll gradient centrifugation ([…], 25 min). All samples were obtained from healthy donors genotyped with HLA A*02:01 MHC class I complex. Then CD8+ T cells were isolated using the Miltenyi AutoMACS cell separator according to the manufacturer's protocol. Isolated CD8+ T cells were then mixed with Miltenyi T cell TransACT reagent (1:100) (Catalog #130-111-160), 25 ng/mL IL-7 (Catalog #130-095-367), and 50 ng/mL IL-15 (Catalog #130-095-760) in Fuji Prime-XV medium (IrvineScientific Catalog #91154) for 48 h for activation.\n(§2) Cells were electroporated with the 4D-Nucleofector System (Lonza) according to the manufacturer's protocol. After activation and inhibitor treatment, 10×10^6 (or 10 million) CD8+ T cells were washed and resuspended with Lonza P3 primary cell nucleofector solution (Catalog #V4XP-3024) and then mixed with pre-mixed RNP and DNA plasmid before transferring to Lonza 100-uL cuvette. After electroporation, 400 ul of FUJI Prime-XV medium was added to the cuvette and incubated for 15 min before seeding cells in culture flask. Pulse code used in this manuscript is EH115 for all circumstances.\n(§3) All inhibitors were purchased from invivogen. Unless stated otherwise, cells were cultured with Fuji Prime-XV medium with 25 ng/ml IL-7 and 50 ng/ml IL-15 (Complete medium). After electroporation, T cells were carefully transferred to 24-well gREX (Wilsonwolf, Catalog: 80192M) at 1-2 million cells/cm^2 seeding density. 8 ml of complete medium were added per well and 50% of the medium was exchanged 6 days later. Cells were incubated at 37° C. and 5% CO2. The NucleoCounter NC-200 automated cell counter with the Via2-Casette were used in this study for cell counting and viability analysis.\n(§4) Two days post activation, CD8+ T cells were washed and resuspended with FUJI Prime-XV complete medium containing inhibitors at the indicated concentrations for 6 h. After treatment, cells were washed and resuspended in Lonza P3 buffer prior to electroporation. Post transfection, T cells were cultured with FUJI Prime-XV complete medium without inhibitor."}, "[2]": {"system": "human primary CD8+ T cells", "experiment": "Total edited cell (TEC) number in final drug product", "assay_type": "cell-based", "settings": "for TEC number: seeding 2 million cells, day 15, on average (FIG. 6C)", "text": "The total edited cell number (TECs) in the final drug product is arguably the most important metric for the adoptive cell transfer (ACT) and this, among a few other conditions, is considered one of the most important criteria for cell therapy purpose since it is expected to translate to the therapeutic impact in the clinic. Using the total cell number of the final cell product on day 15 multiplied by the percentage of knock-in, we get the TECs that are representative of our T cell engineering and culture output. With a starting seeding density of 2 million cells and without inhibitor treatment, as shown for the control conditions (CTR), the TEC numbers were approximately 5.24 million on average (FIG. 6C). However, when T cells were pre-treated with the indicated inhibitors, a significant increase in the output of TECs in all donors were observed (FIGS. 4C, 4F, 4I, FIGS. 5C, 5F), which was consistent with the cell expansion data.\nas §2, §3\n(§5) Dextramer antibodies for knock-in analysis were purchased from Immudex (Catalog: WB3469-PE, WT1) and used following manufacturer's protocol. Surface staining, CFSE staining, 7-AAD/annexin V staining, and intracellular staining were performed as previously described. Samples were analyzed using the BD FACSLyric flow cytometer (BD Biosciences) and FlowJo v10 software. For proliferation and cell killing assay, data were corrected by a negative control or target cell-only control.\nas §4"}, "[3]": {"system": "human primary CD8+ T cells", "experiment": "T cell expansion fold of final cell product, 15-day T cell engineering process", "assay_type": "cell-based", "settings": "for cell expansion of final T cell product: day 15, average", "description": "as §1, §2, §3, §4"}, "[4]": {"system": "human primary CD8+ T cells", "experiment": "Knock-in/knock-out efficiency by flow cytometry (MHC-peptide dextramer and TCR staining)", "assay_type": "cell-based", "description": "as §2, §5, §4"}, "[5]": {"system": "human primary CD8+ T cells", "experiment": "T cell phenotype of final T cell product by flow cytometry (TSCM, TCM, TEM, TE)", "assay_type": "cell-based", "settings": "pre-treatment prior to transfection; day 15; different donors; hydrochloride", "description": "as §5, §4"}, "[6]": {"system": "human primary CD8+ T cells", "experiment": "T cell activation and cytokine expression after 24 h WT1 peptide pulse (flow cytometry)", "assay_type": "cell-based", "settings": "day 15 cells pulsed 24 h with WT1 peptide", "description": "The cGAS-STING pathway is crucial in detecting and neutralizing genotoxic stress. It is a main component of innate immune system that can trigger inflammation in response to cytosolic DNA detection. […] Harvested T cells from inhibitor treated and control groups were pulsed for 24 h with indicated concentrations of a specific peptide (WT1), which binds to the engineered TCR. […] Another major concern is the exhaustion of the engineered T cell cultures. To measure levels of T cell exhaustion, the expression of exhaustion markers, such as Tim3 and PD-1, was evaluated.\nas §5"}, "TBK1 [7]": {"system": "TBK1", "settings": "previous report [9]; cited from earlier work"}, "cGAS-STING pathway": {"system": "cGAS-STING pathway", "experiment": "cGAS-STING pathway activation in T cells (western blot and qPCR)", "assay_type": "cell-based, human", "settings": "pretreatment prior to transfection (FIG. 8A); hydrochloride", "description": "(§6) T cell pellets were collected, washed and stored as frozen pellets in −80° C. until use. Cell pellet processing, western blot experiments and data analysis were performed as previously described (Tang, J B C, 2020).\n(§7) RNeasy Mini Kit (Cat. #74106) was purchased from Qiagen. TaqMan RNA-to-CT 1-Step Kit (Cat. #4392938) and Taqman primer-probe assays with reporter dye FAM and MGB quenchers were purchased from Thermo Fisher (assay information listed in Table 4). After RNA isolation, 2 ng RNA was mixed with Taqman primer-probe mix, TaqMan RNA-to-CT 1-Step master mix, and RT enzyme mix in a 10 uL qPCR system according to the manufacturer's protocol. Reaction readings were measured using QuantStudio 6 Flex machine and data was analyzed using QuantStudio Real-Time PCR software v1.2. PCR cycling conditions were 50° C. for 30 min, 95° C. for 10 min, 40× cycles of 95° C. for 15 s, 60° C. for 1 min. All data points were collected in triplicates, using RNA18S as internal control (sample ID: #Hs03928990_g1).\nas §4"}, "[8]": {"system": "type 1 interferons (IFNa, IFNB) and proinflammatory cytokine (IL-6)", "experiment": "Cytokine expression by qPCR 6 h post transfection", "assay_type": "cell-based, human", "description": "as §7, §4"}, "[9]": {"system": "human primary CD8+ T cells", "experiment": "CFSE proliferation analysis, 72 h co-culture with WT1 peptide", "assay_type": "cell-based", "settings": "day 15 cells, WT1 peptide 72 h", "description": "We next investigated proliferation of T cell after treatment with BX795. The final T cell product obtained from BX795 pre-treated or untreated groups were labeled with CFSE far-red, and co-cultured with WT1 peptide at the indicated concentrations for 72 h. […] T cells treated with higher concentration of WT1 peptide achieved high (˜60%) proliferation rates, implying the strong and antigen specific proliferation of the final T cell product. Finally, we compared T cells isolated from BX795 pre-treated as well as untreated control cultures in a target cell killing assay. Target cells T2 (T) were labeled with CFSE-far red, and then pulsed with 20 uM WT1 peptide before co-incubation with our final T cell product (E) at a ratio dependent manner. […] Of note, compared with the CTLs raised from conventional vaccine strategies, our T cells achieved high killing efficiency with much lower E:T ratio [19, 20], outlining the potential advantage of antigen-specific tumor cell killing of our TCR engineered T cells.\nas §5, with “For proliferation and cell killing assay, data were corrected by a negative control or target cell-only control.” left out"}, "IRF3": {"system": "IRF3", "experiment": "Western blot analysis of IRF3 phosphorylation post transfection", "assay_type": "cell-based, human", "settings": "pre-treatment at both medium and high concentrations (FIG. 8A)", "description": "as §6, §4"}, "TBK1 [10]": {"system": "TBK1", "experiment": "Western blot analysis of TBK1 phosphorylation post transfection", "assay_type": "cell-based, human", "settings": "post BX795 pre-treatment (FIG. 8A)", "description": "as §6, §4"}, "[11]": {"settings": "BX795-M (mid dosage 2.5 uM), day 15"}}, "note": "Entries after “also recorded” stand apart in the source; their conditions may differ. Counter-ions that a name gives are not always drawn."}
{"smiles": "CC(C)c1ccc2oc3nc(N)c(C(=O)O)cc3c(=O)c2c1", "note": "[Aml, 2-amino-5-oxo-7-propan-2-ylchromeno[2,3-b]pyridine-3-carboxylic acid]", "values": [{"measurement": "culture viability improvement compared to the untreated control group (CTR)", "setting": "[1]; 25 uM", "result": "about 2 fold"}, {"measurement": "average increase in TECs compared to the control group", "setting": "[2]; 25 uM pre-treatment", "result": 267.0, "unit": "%"}, {"measurement": "TEC number", "setting": "[2]; 25 uM pre-treatment", "result": 14.7, "unit": "million"}, {"measurement": "cell expansion of final T cell product", "setting": "[3]; 25 uM pre-treatment", "result": 14.5, "unit": "fold"}]}
{"smiles": "O=C(NCCCNc1nc(Nc2cccc(NC(=O)N3CCCC3)c2)ncc1I)c1cccs1", "note": "[BX795, N-[3-[[5-iodo-4-[[3-[(2-thienylcarbonyl)amino]propyl]amino]-2-pyrimidinyl]amino]phenyl]-1- Pyrrolidinecarboxamide hydrochloride]", "values": [{"measurement": "exogenous TCR expression (knock-in) over the culture process vs control group", "setting": "[4]; 2.5 uM pre-treated, day 4 to day 15 (FIG. 14B, 14C), hydrochloride", "result": "increases exogenous TCR expression; also recorded: enhances cell editing efficiency (knock-in)"}, {"measurement": "knock-out efficiency in final cell product", "setting": "[4]; BX795-H (high dosage 5 uM), day 15", "result": 83.5, "unit": "%"}, {"measurement": "knock-in ratio in final cell product", "setting": "[4]; [11]", "result": 61, "unit": "%"}, {"measurement": "knock-out efficiency in final cell product", "setting": "[4]; [11]", "result": 86.7, "unit": "%"}, {"measurement": "KI/KO ratio", "setting": "[4]; day 15, same donor as FIG. 8A", "result": "equal or better KI/KO ratio"}, {"measurement": "culture viability improvement compared to the untreated control group (CTR)", "setting": "[1]; 5 uM", "result": "about 2 fold"}, {"measurement": "% viability", "setting": "[1]; 48 h post transfection, same donor as FIG. 8A (FIG. 8B)", "result": "higher % viability"}, {"measurement": "effectiveness in improving culture viability and growth among tested inhibitors", "setting": "[1]; at 2.5 uM and 5 uM", "result": "most effective"}, {"measurement": "T cell phenotype of final T cell product vs untreated control", "setting": "[5]", "result": "no impact on the final T cell product phenotype"}, {"measurement": "activation profile (CD137, IFNg, TNFa, Granzyme B expression) vs untreated control", "setting": "[6]", "result": "comparable activation profile"}, {"measurement": "enhancement in TBK1 phosphorylation", "setting": "TBK1 [7]", "result": 2, "unit": "fold"}, {"measurement": "cGAS/STING pathway activation", "setting": "cGAS-STING pathway", "result": "considerable reduction in cGAS/STING pathway activation; also recorded: attenuates T cell cGAS-STING pathway"}, {"measurement": "average increase in TECs compared to the control group", "setting": "[2]; 2.5 uM pre-treatment", "result": 303.4, "unit": "%"}, {"measurement": "TEC number", "setting": "[2]; 2.5 uM pre-treatment", "result": 21.1, "unit": "million"}, {"measurement": "TEC numbers", "setting": "[2]; day 15, same donor as FIG. 8A", "result": "improved TEC numbers"}, {"measurement": "improvement in TEC compared to the control group", "setting": "[2]; mid or high concentrations (2.5 uM and 5 um), statistically significant", "result": "more than 3 fold"}, {"measurement": "levels of type 1 interferons (IFNa, IFNB)", "setting": "[8]; BX795 removed prior to transfection", "result": "did not show a significant decrease"}, {"measurement": "downstream cytokine expression (IFNa, IFNB, IL-6)", "setting": "[8]; pre-treatment, 6 h post transfection (FIG. 8F)", "result": "reduced"}, {"measurement": "T cell proliferation in response to antigen specific stimulation vs untreated", "setting": "[9]", "result": "comparable"}, {"measurement": "phosphorylation of IRF3 post transfection", "setting": "IRF3", "result": "attenuated phosphorylation of IRF3"}, {"measurement": "TBK1 phosphorylation", "setting": "TBK1 [10]", "result": "not attenuated and was actually enhanced"}, {"measurement": "cell expansion of final T cell product", "setting": "[3]; 5 uM pre-treatment", "result": 20.3, "unit": "fold"}, {"measurement": "T cell expansion rate", "setting": "[3]; day 15, same donor as FIG. 8A (FIG. 8C)", "result": "increased T cell expansion rate"}, {"measurement": "inhibitor performance by electroporation pulse code", "setting": "[3]; pulse code EH115 vs other pulse codes", "result": "performs better in EH115 groups"}]}
{"smiles": "O=C(NCCCNc1nc(Nc2cccc(CN3CCOCC3)c2)ncc1C1CC1)C1CCC1", "note": "[MRT, N-[3-[[5-cyclopropyl-2-[3-(morpholin-4-ylmethyl)anilino]pyrimidin-4-yl]amino]propyl] cyclobutanecarboxamide]", "values": [{"measurement": "culture viability improvement compared to the untreated control group (CTR)", "setting": "[1]; 2.5 uM", "result": "about 2 fold"}, {"measurement": "average increase in TECs compared to the control group", "setting": "[2]; 5 uM pre-treatment", "result": 180, "unit": "%"}, {"measurement": "TEC number", "setting": "[2]; 5 uM pre-treatment", "result": 17.4, "unit": "million"}, {"measurement": "cell expansion of final T cell product", "setting": "[3]; 5 uM pre-treatment", "result": 17.2, "unit": "fold"}]}
